Assay results taken from patent US20120115845A1, “THERAPEUTIC AGENTS” (priority 2007, published 2012).

Tests used:
human GHS receptor [1] = biological target: T1, human GHS receptor (Homo sapiens, UniProt Q92847); assay: Ghrelin IP1 agonist assay (IP1 HTRF); assay type: cell-based; parameters: expressed in transfected cells; host or cells: HEK293s; settings: for Emax: 2 h, agonist effect as % maximal effect of GHRP-6 (5 μM), read-out: h IP1 ag %; for EC50: HEK293s cells stably expressing human GHS receptor, 2 hours at 37° C., read-out: h IP1 ag EC50
How it was run: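 Cells: HEK293s stably expressing human GHS receptor, in stimulation buffer containing 0.02% fatty acid free BSA.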

human GHS receptor [2] = biological target: T1, human GHS receptor; assay: h bind IC50 (binding assay, Table 1); settings: human receptor; Table 1

T1 sequence (Q92847 whole entry): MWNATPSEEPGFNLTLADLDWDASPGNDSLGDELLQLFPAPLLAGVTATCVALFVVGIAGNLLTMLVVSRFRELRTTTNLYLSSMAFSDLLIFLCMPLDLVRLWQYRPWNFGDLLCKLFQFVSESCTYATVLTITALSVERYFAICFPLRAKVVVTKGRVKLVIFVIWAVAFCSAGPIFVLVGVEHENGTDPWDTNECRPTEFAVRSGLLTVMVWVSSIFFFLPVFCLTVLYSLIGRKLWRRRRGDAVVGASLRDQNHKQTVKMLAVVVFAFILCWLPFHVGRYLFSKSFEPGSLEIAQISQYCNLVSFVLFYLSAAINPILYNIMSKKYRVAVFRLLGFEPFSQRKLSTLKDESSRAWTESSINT

Row | SMILES | Emax (human GHS receptor [1]) [%] | EC50 (human GHS receptor [1]) [nM] | IC50 (human GHS receptor [2]) [nM]
1 | CS(=O)(=O)c1ccc2nc(NC(=O)NC(=O)c3cc(Cl)ccc3Cl)sc2c1 [Example 64, 2,5-Dichloro-N-[(6-methylsulfonylbenzothiazol-2-yl)carbamoyl]benzamide] | 8.74 | 19 | 139
2 | O=C(NC(=O)c1ccccc1Cl)Nc1nc2ccc(S(=O)(=O)CCNC3CC4CCC3C4)cc2s1 (stereo not drawn) [Example 35, 2-Chloro-N-[[6-[2-(norbornan-2-ylamino)ethylsulfonyl]benzothiazol-2-yl]carbamoyl]benzamide] | 56.1 | 10.4 | 71.5
3 | CS(=O)(=O)N1CCN(CCCS(=O)(=O)c2ccc3nc(NC(=O)NC(=O)c4ccccc4Cl)sc3c2)CC1 [Example 208, 2-Chloro-N-[[6-[3-(4-methylsulfonylpiperazin-1-yl)propylsulfonyl]benzothiazol-2-yl]carbamoyl]benzamide] | 30.7 | 13.5 | 18.1
4 | O=C(NC(=O)c1ccccc1Cl)Nc1nc2ccc(S(=O)(=O)CCCN3CCCCC3)cc2s1 [Example 152, 2-Chloro-N-[[6-[3-(1-piperidyl)propylsulfonyl]benzothiazol-2-yl]carbamoyl]benzamide] | 46.6 | 23.9 | 19.1
5 | COCCNCCS(=O)(=O)c1ccc2nc(NC(=O)NC(=O)c3ccccc3Cl)sc2c1 [Example 2, 2-Chloro-N-[[6-[2-(2-methoxyethylamino)ethylsulfonyl]benzothiazol-2-yl]carbamoyl]benzamide] | 40.8 | 17.6 | 13.3
6 | O=C(NC(=O)c1ccccc1Cl)Nc1nc2ccc(S(=O)(=O)CCCN3CCOCC3)cc2s1 [Example 146, 2-Chloro-N-[[6-(3-morpholin-4-ylpropylsulfonyl)benzothiazol-2-yl]carbamoyl]benzamide] | 40.7 | 30 | 269

More lines, in order of falling EC50 (human GHS receptor [1]), values ahead:

Row | Emax (human GHS receptor [1]) [%] | EC50 (human GHS receptor [1]) [nM] | IC50 (human GHS receptor [2]) [nM] | SMILES
7 | 9.98 | 43.4 | 0.47 | CN1CCCN(CCCS(=O)(=O)c2ccc3nc(NC(=O)NC(=O)c4cc(I)ccc4Cl)sc3c2)CC1 [Example 238, 2-chloro-5-iodo-N-(6-(3-(4-methyl-1,4-diazepan-1-yl)propylsulfonyl)benzo[d]thiazol-2-ylcarbamoyl) benzamide]
8 | 16.1 | 5.95 | 58.1 | O=C(NC(=O)c1ccccc1Cl)Nc1nc2ccc(S(=O)(=O)Cc3cccnc3)cc2s1 [Example 187, 2-Chloro-N-[[6-(pyridin-3-ylmethylsulfonyl)benzothiazol-2-yl]carbamoyl]benzamide]
